Results on four molecules are retold here after publication PMC7887804 (Chemical Research in Toxicology, 2020).

Molecules are shown by their SMILES. Read-outs that look alike come from different tables or passages of the source. Marks after values point to notes of the source that are not given here.

The nature of data set [1]: In vitro metabolism study. In kind it is in vitro ADME, human. The note with it: for conversion in incubations with and without the cofactor mix: RLS9 and HLS9, data not shown; for measured concentration at t = 0 lower than the added 1 μM: S9 incubation tubes, suggests binding to the plastic walls; for CLint,u: human (H), CLintapp corrected for the fraction unbound in the incubation; for CLintapp (apparent in vitro intrinsic clearance): human liver S9 (H), 1 μM substrate.

Data set [2] relates to human thyroid peroxidase (TPO). Conditions: ToxCast, cited from earlier work; for activity in the TPO assay: NCCT_TPO_AUR_dn.
The nature of data set [3]: In vitro metabolism study. The note with it: for CLint,u: rat (R), CLintapp corrected for the fraction unbound in the incubation; for CLintapp (apparent in vitro intrinsic clearance): rat liver S9 (R), 1 μM substrate. It counts as in vitro ADME, rat.
The subject of data set [4] is thyroid peroxidase (TPO). Description: QIVIVE oral equivalent dose related to TPO inhibition. Set-up: species or system human. The note with it: humans; for oral equivalent dose related to TPO inhibition: Cmax equal to AC50 in NCCT_TPO_AUR_dn; for margin between human exposure and oral equivalent dose related to TPO inhibition: highest exposure estimates.
The conditions of data set [5]: cited from earlier work; for pKa: A, acid, ref Tsao [40]; for logP: octanol/water, ref PubChem.
The conditions of data set [6]: positive hit calls, ToxCast summary data; cited from earlier work.
The conditions of data set [7]: cited from earlier work.
The conditions of data set [8]: rats, 100 mg/kg bw [14C]-labelled, parent compound in plasma up to 24 h; cited from earlier work.
For data set [9] the following is noted: cited from earlier work. This is another data set of the same source.
The conditions of data set [10]: 90 day toxicity study, mainly effects on hematological parameters; cited from earlier work.
The test system of data set [11] is thyroid peroxidase (TPO). Description: QIVIVE oral equivalent dose related to TPO inhibition. Details: species or system rat. The note with it: rats, Cmax equal to AC50 in NCCT_TPO_AUR_dn.
The conditions of data set [12]: developmental toxicity study; cited from earlier work.
The mark [13] stands for this setting: rats ♂, 17.5 mg/kg bw, mean (min–max).
Setting [14] is: humans ♀ and ♂, 1.4 mg/kg bw, mean.
[15] abbreviates: humans ♀ and ♂, 14 mg/kg bw, mean.
The mark [16] stands for this setting: humans ♀, 1.4 mg/kg bw, mean (min–max).
The mark [17] stands for this setting: humans ♀, 14 mg/kg bw, mean (min–max).
Where [18] appears, read: humans ♂, 1.4 mg/kg bw, mean (min–max).
Where [19] appears, read: humans ♂, 14 mg/kg bw, mean (min–max).
Where [20] appears, read: rats ♀ and ♂, 14 mg/kg bw, mean.
The mark [21] stands for this setting: rats ♀ and ♂, 135 mg/kg bw, mean.
[22] abbreviates: rats ♀, 14 mg/kg bw, mean (min–max).
Where [23] appears, read: rats ♀, 135 mg/kg bw, mean (min–max).
Where [24] appears, read: rats ♂, 14 mg/kg bw, mean (min–max).
Where [25] appears, read: rats ♂, 135 mg/kg bw, mean (min–max).

On to `CCCCCCCCCCCCOC(=O)c1cc(O)c(O)c(O)c1` [dodecyl gallate], for which, in data set [1], the “conversion in incubations with and without the cofactor mix” value is recorded as “to some extent”; the “measured concentration at t = 0 lower than the added 1 μM” value was “up to 2 fold”; the “CLint,u” value is recorded as 8800 μL/min/mg of S9 protein; the “CLintapp (apparent in vitro intrinsic clearance)” value (from here on “CLintapp”) is given as 88 μL/min/mg of S9 protein. The “activity in the TPO assay” value in data set [2] is on record as “active”. Also, in data set [3], the “CLint,u” value was 11 600 μL/min/mg of S9 protein and the “CLintapp” value is given as 232 μL/min/mg of S9 protein. Further, in data set [4], the “oral equivalent dose related to TPO inhibition” value is on record as 69 mg/kg bw; the “margin between human exposure and oral equivalent dose related to TPO inhibition” value is recorded as ≥ 122 fold. In addition, in data set [5], the pKa is given as 7.93 (A); the logP (as a rule, a log measure of how a compound divides between an organic and an aqueous phase) was 6.37. The “number of ToxCast assays in which the compound is active out of assays tested” value (“number of ToxCast assays” for short) in data set [6] is 210 out of 441. Also, the “reported in vivo Cmax” value in data set [7] (rats, 10 mg/kg bw oral, blood collected only 10 min after dosing) is given as “no detectable plasma concentrations”.

For the molecule `COC(=O)c1ccc(O)cc1` [methylparaben], in data set [1], the “conversion in incubations with and without the cofactor mix” value is “occurs both in the presence and absence of the cofactor mix”; the “CLint,u” value is 121 μL/min/mg of S9 protein; the “CLintapp” value was 102 μL/min/mg of S9 protein. For the same molecule, in data set [3], the “CLint,u” value is reported as 642 μL/min/mg of S9 protein and the “CLintapp” value was 629 μL/min/mg of S9 protein. Besides, the “faster conversion (CLint) by RLS9 compared with HLS9” value in [3] (rat vs human liver S9) is reported as 6 fold. For the same molecule, in [6], the “number of ToxCast assays” value is 24 out of 886. The “reported in vivo Cmax” value in [8] is listed as “No parent compound was detected”.

For the molecule `CCCCCCCCOC(=O)c1cc(O)c(O)c(O)c1` [octyl gallate], in data set [1], the “conversion in incubations with and without the cofactor mix” value is reported as “to some extent”; the “measured concentration at t = 0 lower than the added 1 μM” value is reported as “up to 2 fold”; the “CLint,u” value is 3999 μL/min/mg of S9 protein; the “CLintapp” value was 3119 μL/min/mg of S9 protein. For the same molecule, the “activity in the TPO assay” value in data set [2] was “active”. In [3], the “CLint,u” value is reported as 4695 μL/min/mg of S9 protein and the “CLintapp” value is recorded as 3662 μL/min/mg of S9 protein. In data set [4], the “oral equivalent dose related to TPO inhibition” value turned out to be 99 mg/kg bw; the “margin between human exposure and oral equivalent dose related to TPO inhibition” value is listed as “at least 106 fold”. In data set [5], the pKa was 7.94 (A) and the log partition coefficient (logP) is 4.33. Further, in [6], the “number of ToxCast assays” value is reported as 355 out of 982. The “reported in vivo Cmax” value in [7] (rats ♀, 17.5 mg/kg bw, mean) is listed as “♀ 20 (range NR)^a ng/mL”. In data set [7] (setting [13]), the “reported in vivo AUC” value is listed as “♂ 3.7 (1.4–7.8) n = 6 ng*hr/mL” and the “reported in vivo Cmax” value is “♂ 19 (9–41) n = 6 ng/mL”.

As to `CCCOC(=O)c1cc(O)c(O)c(O)c1` [propyl gallate], the figures for the “CLint,u” value in data set [1] and in data set [3] were 437 μL/min/mg of S9 protein and 835 μL/min/mg of S9 protein, respectively. Also, the “CLintapp” value in [1] was 428 μL/min/mg of S9 protein; in [3], 818 μL/min/mg of S9 protein. In addition, the concentration at half-maximal activity (AC50) (in general, the midpoint of the concentration-response curve, whichever way the signal moves) in data set [2] (read-out: AC50 in the NCCT_TPO_AUR_dn assay, TPO inhibition) was 580 nM. Also, the “reported in vivo AUC” value was “♀ and ♂ 21 n = 11 ng*hr/mL” in data set [9] (setting [14]); “♀ and ♂ 346 n = 10 ng*hr/mL” in data set [9] (setting [15]); “♀ 19 (13-21) n = 4 ng*hr/mL” in data set [9] (setting [16]); “♀ 290 (25–425) n = 5 ng*hr/mL” in [9] (setting [17]); “♂ 21 (9.4–42) n = 7 ng*hr/mL” in [9] (setting [18]); “♂ 402 (290–587) n = 5 ng*hr/mL” in data set [9] (setting [19]). Moreover, the “reported in vivo AUC” value was “♀ and ♂ 95 n = 12 ng*hr/mL” in data set [7] (setting [20]); “♀ and ♂ 1624 n = 16 ng*hr/mL” in data set [7] (setting [21]); “♀ 66 (39–100) n = 6 ng*hr/mL” in data set [7] (setting [22]); “♀ 1164 (321–3451) n = 8 ng*hr/mL” in [7] (setting [23]); “♂ 123 (62–217) n = 6 ng*hr/mL” in data set [7] (setting [24]); “♂ 2085 (660–4119) n = 8 ng*hr/mL” in data set [7] (setting [25]). Also, the “reported in vivo Cmax” value in data set [9] (setting [14]) was “♀ and ♂ 13 n = 11 ng/mL”; in data set [9] (setting [15]), “♀ and ♂ 152 n = 10 ng/mL”; in data set [9] (setting [16]) it was “♀ 12 (11–14) n = 4 ng/mL”; in data set [9] (setting [17]), “♀ 150 (10–240) n = 5 ng/mL”; in [9] (setting [18]), “♂ 14 (4–33) n = 7 ng/mL”; in [9] (setting [19]) it was “♂ 155 (84–208) n = 5 ng/mL”. Moreover, the “reported in vivo Cmax” value was “♀ and ♂ 192 n = 12 ng/mL” in data set [7] (setting [20]); “♀ and ♂ 4753 n = 16 ng/mL” in data set [7] (setting [21]); “♀ 238 (68–462) n = 6 ng/mL” in [7] (setting [22]); “♀ 4246 (884–12 825) n = 8 ng/mL” in data set [7] (setting [23]); “♂ 145 (67–334) n = 6 ng/mL” in data set [7] (setting [24]); “♂ 5260 (1635–11085) n = 8 ng/mL” in data set [7] (setting [25]). Also, the NOAEL (in general, the highest tested level that showed no adverse finding) in data set [10] is on record as 150 mg/kg bw/day; in data set [12] it was 300 mg/kg bw/day. Further, the “oral equivalent dose related to TPO inhibition” value is 6.3 mg/kg bw in data set [4] and 7.9 mg/kg bw in [11]. Further, the logP in [5] is given as 1.87. The “number of ToxCast assays” value in data set [6] is recorded as 131 out of 888.
